The molecules below were run against Beta-3 Adrenergic Receptor (Homo sapiens (Human), UniProt P13945) (assay: HTRF cAMP antagonist assay (IC50 determination)). Conditions: CHO-K1 cells stably expressing recombinant receptor; antagonism of isoproterenol at EC90; cAMP readout.
Sequence of Beta-3 Adrenergic Receptor (P13945 whole entry, species assumed): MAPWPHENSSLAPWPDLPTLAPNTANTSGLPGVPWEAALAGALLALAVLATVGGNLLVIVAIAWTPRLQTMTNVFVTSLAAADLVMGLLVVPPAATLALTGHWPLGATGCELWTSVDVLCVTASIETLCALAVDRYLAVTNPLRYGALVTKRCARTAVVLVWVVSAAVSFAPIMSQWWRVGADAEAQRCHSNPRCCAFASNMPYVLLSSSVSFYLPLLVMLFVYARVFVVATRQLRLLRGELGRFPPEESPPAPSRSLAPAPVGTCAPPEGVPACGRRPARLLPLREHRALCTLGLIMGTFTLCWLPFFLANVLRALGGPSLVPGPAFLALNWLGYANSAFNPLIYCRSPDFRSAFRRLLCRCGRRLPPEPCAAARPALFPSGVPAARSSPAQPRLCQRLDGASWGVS
Type: cell-based
How it was run: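 CHO-K1 cells stably expressing receptor, 1500 cells/well, preincubated briefly with 10-point 5-fold compound series (top final typically 10 or 100 μM) in PBS with 1 mM IBMX, then challenged with isoproterenol at EC90 for 1 h at room temperature. cAMP read by HTRF against on-plate standard curve; IC50 from dose-response.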
For `CCOc1ccc(-c2ccc(CN)cc2)cc1S(=O)(=O)N1CCC2(CC1)C[C@@H](NC[C@H](O)COc1cccc(S(=O)(=O)CC(N)=O)c1)CO2` [Compound 179, 2-(3-((S)-3-((R)-8-(4′-(aminomethyl)-4-ethoxybiphenyl-3-ylsulfonyl)-1-oxa-8-azaspiro[4.5]decan-3-ylamino)-2-hydroxypropoxy)phenylsulfonyl)acetamide], the IC50 was 49.1 nM. Work on `CC(C)(CN)c1ccc(-c2cccc(S(=O)(=O)N3CCC4(CC3)C[C@H](NC[C@H](O)COc3cccc(S(=O)(=O)C5(CO)CC5)c3)CO4)c2)cc1` [Compound 180, (S)-1-((S)-8-(4′-(1-amino-2-methylpropan-2-yl)biphenyl-3-ylsulfonyl)-1-oxa-8-azaspiro[4.5]decan-3-ylamino)-3-(3-(1-(hydroxymethyl)cyclopropylsulfonyl)phenoxy)propan-2-ol] yielded an IC50 of 30.7 nM. In the case of `CC(C)(CN)c1ccc(-c2cccc(S(=O)(=O)N3CCC4(CC3)C[C@@H](NC[C@H](O)COc3cccc(S(=O)(=O)C5(CO)CC5)c3)CO4)c2)cc1` [Compound 181, (S)-1-((R)-8-(4′-(1-amino-2-methylpropan-2-yl)biphenyl-3-ylsulfonyl)-1-oxa-8-azaspiro[4.5]decan-3-ylamino)-3-(3-(1-(hydroxymethyl)cyclopropylsulfonyl)phenoxy)propan-2-ol], the IC50 is reported as 180 nM. Work on `NCc1ccc(-c2cccc(S(=O)(=O)N3CCC4(CC3)C[C@H](NC[C@H](O)COc3cccc(S(=O)(=O)C5(CO)CC5)c3)CO4)c2)cc1F` [Compound 182, (S)-1-((S)-8-(4′-(aminomethyl)-3′-fluorobiphenyl-3-ylsulfonyl)-1-oxa-8-azaspiro[4.5]decan-3-ylamino)-3-(3-(1-(hydroxymethyl)cyclopropylsulfonyl)phenoxy)propan-2-ol] yielded an IC50 of 24.7 nM. Molecule `O=C(O)CS(=O)(=O)c1cccc(OC[C@@H](O)CN[C@H]2COC3(CCN(S(=O)(=O)c4cnc5ccccc5c4)CC3)C2)c1` [Compound 183, 2-(3-((S)-2-hydroxy-3-((R)-8-(quinolin-3-ylsulfonyl)-1-oxa-8-azaspiro[4.5]decan-3-ylamino)propoxy)phenylsulfonyl)acetic acid] has an IC50 of 1600 nM. With `NC1(c2ccc(-c3cccc(S(=O)(=O)N4CCC5(CC4)C[C@H](NC[C@H](O)COc4cccc(S(=O)(=O)C6(CO)CC6)c4)CO5)c3)cc2)CC1` [Compound 184, (S)-1-((S)-8-(4′-(1-aminocyclopropyl)biphenyl-3-ylsulfonyl)-1-oxa-8-azaspiro[4.5]decan-3-ylamino)-3-(3-(1-(hydroxymethyl)cyclopropylsulfonyl)phenoxy)propan-2-ol] the IC50 was 26.7 nM. `O=S(=O)(c1cncc(Br)c1)N1CCC2(CC1)C[C@@H](NC[C@H](O)COc1cccc(S(=O)(=O)C3(CO)CC3)c1)CO2` [Compound 185, (S)-1-((R)-8-(5-bromopyridin-3-ylsulfonyl)-1-oxa-8-azaspiro[4.5]decan-3-ylamino)-3-(3-(1-(hydroxymethyl)cyclopropylsulfonyl)phenoxy)propan-2-ol] gave an IC50 of 258 nM. `O=S(=O)(c1cncc(Br)c1)N1CCC2(CC1)C[C@H](NC[C@H](O)COc1cccc(S(=O)(=O)C3(CO)CC3)c1)CO2` [Compound 186, (S)-1-((S)-8-(5-bromopyridin-3-ylsulfonyl)-1-oxa-8-azaspiro[4.5]decan-3-ylamino)-3-(3-(1-(hydroxymethyl)cyclopropylsulfonyl)phenoxy)propan-2-ol] showed an IC50 of 78.6 nM. `CCOc1ccc(-c2ccc(CN)cc2)cc1S(=O)(=O)N1CCC2(CC1)C[C@H](NC[C@H](O)COc1cccc(S(=O)(=O)C(C)(C)CO)c1)CO2` [Compound 187, 2-(3-((S)-3-((S)-8-(4′-(aminomethyl)-4-ethoxybiphenyl-3-ylsulfonyl)-1-oxa-8-azaspiro[4.5]decan-3-ylamino)-2-hydroxypropoxy)phenylsulfonyl)-2-methylpropan-1-ol] showed an IC50 of 33.4 nM. Work on `CCOc1ccc(-c2ccc(C3(N)CC3)cc2)cc1S(=O)(=O)N1CCC2(CC1)C[C@H](NC[C@H](O)COc1cccc(S(=O)(=O)C3(CO)CC3)c1)CO2` [Compound 188, (S)-1-((S)-8-(4′-(1-aminocyclopropyl)-4-ethoxybiphenyl-3-ylsulfonyl)-1-oxa-8-azaspiro[4.5]decan-3-ylamino)-3-(3-(1-(hydroxymethyl)cyclopropylsulfonyl)phenoxy)propan-2-ol] yielded an IC50 of 35 nM. `NCc1ccc(-c2cccc(S(=O)(=O)N3CCC4(CC3)C[C@@H](NC[C@H](O)COc3cccc(S(=O)(=O)C5CC5)c3)CO4)c2)cc1` [Compound 189, (S)-1-((R)-8-(4′-(aminomethyl)biphenyl-3-ylsulfonyl)-1-oxa-8-azaspiro[4.5]decan-3-ylamino)-3-(3-(cyclopropylsulfonyl)phenoxy)propan-2-ol] gave an IC50 of 10.3 nM. With `CC(=O)NCCc1ccc(-c2cccc(S(=O)(=O)N3CCC4(CC3)C[C@H](NC[C@H](O)COc3cccc(S(=O)(=O)C5(CO)CC5)c3)CO4)c2)cc1` [Compound 190, N-(2-(3′-((S)-3-((S)-2-hydroxy-3-(3-(1-(hydroxymethyl)cyclopropylsulfonyl)phenoxy)propylamino)-1-oxa-8-azaspiro[4.5]decan-8-ylsulfonyl)biphenyl-4-yl)ethyl)acetamide] the IC50 was 31.3 nM. Molecule `CC(=O)NCCc1ccc(-c2cccc(S(=O)(=O)N3CCC4(CC3)C[C@@H](NC[C@H](O)COc3cccc(S(=O)(=O)C5(CO)CC5)c3)CO4)c2)cc1` [Compound 191, N-(2-(3′-((R)-3-((S)-2-hydroxy-3-(3-(1-(hydroxymethyl)cyclopropylsulfonyl)phenoxy)propylamino)-1-oxa-8-azaspiro[4.5]decan-8-ylsulfonyl)biphenyl-4-yl)ethyl)acetamide] has an IC50 of 440 nM. For `Cc1c(Br)cccc1S(=O)(=O)N1CCC2(CC1)C[C@@H](NC[C@H](O)COc1cccc(S(=O)(=O)C3(CO)CC3)c1)CO2` [Compound 192, (S)-1-((R)-8-(3-bromo-2-methylphenylsulfonyl)-1-oxa-8-azaspiro[4.5]decan-3-ylamino)-3-(3-(1-(hydroxymethyl)cyclopropylsulfonyl)phenoxy)propan-2-ol], the IC50 was 298 nM. `COc1ccc(S(=O)(=O)N2CCC3(CC2)C[C@@H](NC[C@H](O)COc2cccc(S(=O)(=O)C4(CO)CC4)c2)CO3)cc1Br` [Compound 193, (S)-1-((R)-8-(3-bromo-4-methoxyphenylsulfonyl)-1-oxa-8-azaspiro[4.5]decan-3-ylamino)-3-(3-(1-(hydroxymethyl)cyclopropylsulfonyl)phenoxy)propan-2-ol] gave an IC50 of 26.9 nM. For `Cc1cc(S(=O)(=O)N2CCC3(CC2)C[C@@H](NC[C@H](O)COc2cccc(S(=O)(=O)C4(CO)CC4)c2)CO3)ccc1Br` [Compound 194, (S)-1-((R)-8-(4-bromo-3-methylphenylsulfonyl)-1-oxa-8-azaspiro[4.5]decan-3-ylamino)-3-(3-(1-(hydroxymethyl)cyclopropylsulfonyl)phenoxy)propan-2-ol], the IC50 was 13.6 nM. `O=S(=O)(c1cccnc1)N1CCC2(CC1)C[C@@H](NC[C@H](O)COc1cccc(S(=O)(=O)C3(CO)CC3)c1)CO2` [Compound 195, (S)-1-(3-(1-(hydroxymethyl)cyclopropylsulfonyl)phenoxy)-3-((R)-8-(pyridin-3-ylsulfonyl)-1-oxa-8-azaspiro[4.5]decan-3-ylamino)propan-2-ol] gave an IC50 of 1530 nM. `Cc1cc(S(=O)(=O)N2CCC3(CC2)C[C@H](NC[C@H](O)COc2cccc(S(=O)(=O)C4(CO)CC4)c2)CO3)ccc1Br` [Compound 196, (S)-1-((S)-8-(4-bromo-3-methylphenylsulfonyl)-1-oxa-8-azaspiro[4.5]decan-3-ylamino)-3-(3-(1-(hydroxymethyl)cyclopropylsulfonyl)phenoxy)propan-2-ol] gave an IC50 of 34.6 nM. In the case of `Cc1c(-c2ccc(CN)cc2)cccc1S(=O)(=O)N1CCC2(CC1)C[C@H](NC[C@H](O)COc1cccc(S(=O)(=O)C3(CO)CC3)c1)CO2` [Compound 197, (S)-1-((S)-8-(4′-(aminomethyl)-2-methylbiphenyl-3-ylsulfonyl)-1-oxa-8-azaspiro[4.5]decan-3-ylamino)-3-(3-(1-(hydroxymethyl)cyclopropylsulfonyl)phenoxy)propan-2-ol], the IC50 is reported as 85 nM. In the case of `Cc1c(-c2ccc(C3(N)CC3)cc2)cccc1S(=O)(=O)N1CCC2(CC1)C[C@H](NC[C@H](O)COc1cccc(S(=O)(=O)C3(CO)CC3)c1)CO2` [Compound 198, (S)-1-((S)-8-(4′-(1-aminocyclopropyl)-2-methylbiphenyl-3-ylsulfonyl)-1-oxa-8-azaspiro[4.5]decan-3-ylamino)-3-(3-(1-(hydroxymethyl)cyclopropylsulfonyl)phenoxy)propan-2-ol], the IC50 is reported as 62.2 nM. With `COc1ccc(S(=O)(=O)N2CCC3(CC2)C[C@@H](NC[C@H](O)COc2cccc(S(=O)(=O)C4(CO)CC4)c2)CO3)cc1-c1ccc(C2(N)CC2)cc1` [Compound 199, (S)-1-((R)-8-(4′-(1-aminocyclopropyl)-6-methoxybiphenyl-3-ylsulfonyl)-1-oxa-8-azaspiro[4.5]decan-3-ylamino)-3-(3-(1-(hydroxymethyl)cyclopropylsulfonyl)phenoxy)propan-2-ol] the IC50 was 25 nM. In the case of `Cc1c(Br)cccc1S(=O)(=O)N1CCC2(CC1)C[C@H](NC[C@H](O)COc1cccc(S(=O)(=O)C3(CO)CC3)c1)CO2` [Compound 200, (S)-1-((S)-8-(3-bromo-2-methylphenylsulfonyl)-1-oxa-8-azaspiro[4.5]decan-3-ylamino)-3-(3-(1-(hydroxymethyl)cyclopropylsulfonyl)phenoxy)propan-2-ol], the IC50 is reported as 72.4 nM. Molecule `COc1ccc(S(=O)(=O)N2CCC3(CC2)C[C@H](NC[C@H](O)COc2cccc(S(=O)(=O)C4(CO)CC4)c2)CO3)cc1Br` [Compound 201, (S)-1-((S)-8-(3-bromo-4-methoxyphenylsulfonyl)-1-oxa-8-azaspiro[4.5]decan-3-ylamino)-3-(3-(1-(hydroxymethyl)cyclopropylsulfonyl)phenoxy)propan-2-ol] has an IC50 of 41.8 nM.
